Measured values as given in US20260274814A1, “THIENYL COMPOUNDS FOR THE TREATMENT OF A CENTRAL NERVOUS SYSTEM DISEASE OR DISORDER” (Coreterra Therapeutics, Inc., priority 2023, published 2026).
Counter-ions that a name gives are not always drawn.

System: mice
Assay: Neuropharmacological Assay (SmartCube): automated behavioral signature of compound-treated mice compared with a database of reference drug classes
Type: in vivo
Details: for minimal effective dose: Mus musculus, ip, read-out: MED; for minimal effective dose / MED: minimal effective dose: dose having 45% or more total activity in SmartCube, i.p., if only one dose tested, that dose is shown; for AD / AG / AN / AP / AX / CE / HL / MS / PS / SH / UK: SmartCube class probability, 3.0 mg/kg i.p., 15 min before test
In short: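 i.p. dosing 15 min pre-test (NMP/PEG/propylene glycol vehicle); 3 doses, 3.0 mg/kg reported. Output = class-match probability per behavioural effect. Potency runs 0.3, 1, 3, 10 mpk (range adjusted as needed); MED = dose with ≥45% total activity.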

Row | Structure (SMILES) | minimal effective dose [mg/kg] | AD | AG | AN | AP | AX | CE | HL | MS | PS | SH | UK (hydrochloride, 3 mg/kg) | MED [mpk] | UK | AD (hydrochloride, 3 mg/kg) | MED (hydrochloride) [mpk] | AX (hydrochloride, 3 mg/kg) | further results
1 | CNC1CCc2sc(Cl)cc2C1 (single isomer, unassigned) [Compound 151, 2-chloro-N-methyl-4,5,6,7-tetrahydrobenzothiophen-5-amine hydrochloride] | 3 | ND (^ <4%) | ND (^ <4%) | ND (^ <4%) | ND (^ <4%) | ND (^ <4%) | ND (^ <4%) | ND (^ <4%) | ND (^ <4%) | ND (^ <4%) | ND (^ <4%) | +++ (≥49%) | – | – | – | – | – | –
2 | CNC1CCc2sc(Cl)cc2C1 (single isomer, unassigned) [Compound 152, 2-chloro-N-methyl-4,5,6,7-tetrahydrobenzothiophen-5-amine hydrochloride] | – | ND (^ <4%) | ND (^ <4%) | ND (^ <4%) | ND (^ <4%) | ND (^ <4%) | ND (^ <4%) | ND (^ <4%) | ND (^ <4%) | ND (^ <4%) | ND (^ <4%) | ++ (≥24%) | 3 | – | – | – | – | –
3 | CNC1CCc2csc(C3CC3)c2C1 (single isomer, unassigned) [Compound 154, 3-cyclopropyl-N-methyl-4,5,6,7-tetrahydro-2-benzothiophen-5-amine hydrochloride] | – | – | ND (^ <4%) | ND (^ <4%) | ND (^ <4%) | ND (^ <4%) | – | ND (^ <4%) | – | ND (^ <4%) | – | – | – | ND (^ <4%) | ND (^ <4%) | >1 | – | CE (hydrochloride, 3 mg/kg): ND (^ <4%); MS (hydrochloride, 3 mg/kg): ND (^ <4%); SH (hydrochloride, 3 mg/kg): ND (^ <4%)
4 | CNC1CCc2csc(C3CC3)c2C1 (single isomer, unassigned) [Compound 155, 3-cyclopropyl-N-methyl-4,5,6,7-tetrahydro-2-benzothiophen-5-amine hydrochloride] | – | – | ND (^ <4%) | ND (^ <4%) | ND (^ <4%) | ND (^ <4%) | – | ND (^ <4%) | – | ND (^ <4%) | – | – | – | ND (^ <4%) | + (≥4%) | 0.3 | – | CE (hydrochloride, 3 mg/kg): + (≥4%); MS (hydrochloride, 3 mg/kg): + (≥4%); SH (hydrochloride, 3 mg/kg): ++ (≥24%)
5 | CN(C)C1CCc2cscc2C1.Cl (single isomer, unassigned) [Compound 156, N,N-dimethyl-4,5,6,7-tetrahydro-2-benzothiophen-5-amine hydrochloride] | 3 | ND (^ <4%) | ND (^ <4%) | ND (^ <4%) | ND (^ <4%) | – | ND (^ <4%) | ND (^ <4%) | ND (^ <4%) | ND (^ <4%) | ND (^ <4%) | ++ (≥24%) | – | – | – | – | ++ (≥24%) | –
6 | CN(C)C1CCc2cscc2C1.Cl (single isomer, unassigned) [Compound 157, N,N-dimethyl-4,5,6,7-tetrahydro-2-benzothiophen-5-amine hydrochloride] | – | ND (^ <4%) | ND (^ <4%) | ND (^ <4%) | ND (^ <4%) | – | ND (^ <4%) | ND (^ <4%) | ND (^ <4%) | ND (^ <4%) | ND (^ <4%) | ND (^ <4%) | 3 | – | – | – | +++ (≥49%) | –
7 | c1scc2c1CCC(NCC1CC1)C2 (single isomer, unassigned) [Compound 158, N-(cyclopropylmethyl)-4,5,6,7-tetrahydro-2-benzothiophen-5-amine hydrochloride] | – | ND (^ <4%) | ND (^ <4%) | ND (^ <4%) | ND (^ <4%) | – | ND (^ <4%) | ND (^ <4%) | ND (^ <4%) | ND (^ <4%) | ND (^ <4%) | ND (^ <4%) | – | – | – | 1 | ++++ (≥74%) | –
8 | c1scc2c1CCC(NCC1CC1)C2 (single isomer, unassigned) [Compound 159, N-(cyclopropylmethyl)-4,5,6,7-tetrahydro-2-benzothiophen-5-amine hydrochloride] | – | ND (^ <4%) | ND (^ <4%) | ND (^ <4%) | ND (^ <4%) | – | ND (^ <4%) | ND (^ <4%) | ND (^ <4%) | ND (^ <4%) | ND (^ <4%) | + (≥4%) | – | – | – | >3 | ND (^ <4%) | –
9 | c1scc2c1CCC(NC1CCC1)C2 (single isomer, unassigned) [Compound 160, N-cyclobutyl-4,5,6,7-tetrahydro-2-benzothiophen-5-amine hydrochloride] | > 3 | ND (^ <4%) | ND (^ <4%) | ND (^ <4%) | ND (^ <4%) | ND (^ <4%) | ND (^ <4%) | ND (^ <4%) | ND (^ <4%) | ND (^ <4%) | ND (^ <4%) | + (≥4%) | – | – | – | – | – | –
10 | c1scc2c1CCC(NC1CCC1)C2 (single isomer, unassigned) [Compound 161, N-cyclobutyl-4,5,6,7-tetrahydro-2-benzothiophen-5-amine hydrochloride] | – | ND (^ <4%) | ND (^ <4%) | ND (^ <4%) | ND (^ <4%) | ND (^ <4%) | ND (^ <4%) | ND (^ <4%) | ND (^ <4%) | ND (^ <4%) | ND (^ <4%) | ND (^ <4%) | >3 | – | – | – | – | –
11 | Cc1scc2c1CC(N)CC2 (single isomer, unassigned) [Compound 162, 3-methyl-4,5,6,7-tetrahydro-2-benzothiophen-5-amine hydrochloride] | 3 | ND (^ <4%) | ND (^ <4%) | ND (^ <4%) | ND (^ <4%) | – | ND (^ <4%) | ND (^ <4%) | ND (^ <4%) | ND (^ <4%) | ND (^ <4%) | – | – | + (≥4%) | – | – | +++ (≥49%) | –
12 | Cc1scc2c1CC(N)CC2 (single isomer, unassigned) [Compound 163, 3-methyl-4,5,6,7-tetrahydro-2-benzothiophen-5-amine hydrochloride] | – | ND (^ <4%) | ND (^ <4%) | ND (^ <4%) | ND (^ <4%) | – | ND (^ <4%) | ND (^ <4%) | ND (^ <4%) | ND (^ <4%) | ND (^ <4%) | – | – | + (≥4%) | – | >3 | ND (^ <4%) | –
13 | Cc1scc2c1CCC(N)C2 (single isomer, unassigned) [Compound 164, 1-methyl-4,5,6,7-tetrahydro-2-benzothiophen-5-amine hydrochloride] | 3 | – | ND (^ <4%) | ND (^ <4%) | ND (^ <4%) | ND (^ <4%) | ND (^ <4%) | – | ND (^ <4%) | ND (^ <4%) | ND (^ <4%) | – | – | ND (^ <4%) | +++ (≥49%) | – | – | HL (hydrochloride, 3 mg/kg): ND (^ <4%)
14 | Cc1scc2c1CCC(N)C2 (single isomer, unassigned) [Compound 165, 1-methyl-4,5,6,7-tetrahydro-2-benzothiophen-5-amine hydrochloride] | – | – | ND (^ <4%) | ND (^ <4%) | ND (^ <4%) | ND (^ <4%) | ND (^ <4%) | – | ND (^ <4%) | ND (^ <4%) | ND (^ <4%) | – | 3 | ND (^ <4%) | ND (^ <4%) | – | – | HL (hydrochloride, 3 mg/kg): ++++ (≥74%)
15 | NC1CCc2cscc2C1 (single isomer, unassigned) [Compound 166, 4,5,6,7-tetrahydro-2-benzothiophen-5-amine hydrochloride] | 1 | – | ND (^ <4%) | ND (^ <4%) | – | +++ (≥49%) | ND (^ <4%) | ND (^ <4%) | ND (^ <4%) | – | ND (^ <4%) | – | – | ND (^ <4%) | + (≥4%) | – | – | AP (hydrochloride, 3 mg/kg): ++ (≥24%); PS (hydrochloride, 3 mg/kg): ND (^ <4%)
16 | NC1CCc2cscc2C1 (single isomer, unassigned) [Compound 167, 4,5,6,7-tetrahydro-2-benzothiophen-5-amine hydrochloride] | – | – | ND (^ <4%) | ND (^ <4%) | – | +++ (≥49%) | ND (^ <4%) | ND (^ <4%) | ND (^ <4%) | – | ND (^ <4%) | – | 1 | ND (^ <4%) | ++ (≥24%) | – | – | AP (hydrochloride, 3 mg/kg): ND (^ <4%); PS (hydrochloride, 3 mg/kg): + (≥4%)
